This note sets out measurements from patent US20120065228A1, “COMPOSITIONS AND METHODS FOR TREATING, CONTROLLING, REDUCING, OR AMELIORATING OCULAR INFLAMMATORY WITH LOWER RISK OF INCREASED INTRAOCULAR PRESSURE” (priority 2007, published 2012).

In data set [1] the test system is myocilin protein in CM of monkey TM cells. In words: Myocilin protein in conditioned media of monkey TM cells (Western blot). Format: cell-based, rhesus monkeys (Macaca mulatta). To be noted: for Effect on myocilin concentrations in CM: 3 to 300 nM, second 48-hour treatment period. How it is done:
All animal procedures were in accordance with the ARVO (Association for Research in Vision and Ophthalmology) resolution on animal care. Eyes from freshly killed, healthy rhesus monkeys (Macaca mulatta), obtained from Lonza (Walkersville, Md.), were transported in CO2-independent medium on ice, and processed approximately 40 hours post-enucleation. Following removal of iris, lens, and the bulk of the ciliary body, opercula (an anatomical feature of monkey TM) were stripped from anterior segment quadrants. Using fine scissors, strips of TM were excised, and subdivided TM fragments were explanted to multiwell plates containing growth medium (described below) and incubated with Cytodex-3 gelatin-coated beads (Sigma Chemical Company, St. Louis, Mo.). The beads attach to the explants within hours and provide additional substrate area for out-migration of cells. Proliferating TM cells colonize additional beads and also “spill” onto the tissue culture plastic and form colonies. After several days, the original TM explants and beads were transferred to new wells, generating additional primary cultures. Subconfluent monolayers of cells on tissue culture plastic were passed from 12-well plates to 35- or 60-mm dishes using a Collagenase-Dispase (Roche Applied Bioscience, Indianapolis, Ind.). Second- or third-passage subcultures were finally harvested enzymatically as above, and the cells were counted and cryopreserved in liquid nitrogen.
For each study, up to nine TM cell strains, each derived from an individual monkey, were tested separately. Cells were thawed and seeded into 12- or 48-well clusters (Falcon, BD Biosciences; 150,000 and 30,000 cells/well, respectively) in proliferation medium. When cells were 75% to 90% confluent proliferation medium was replaced by a 5:4 mixture of HESFM and Dulbecco's MEM, respectively, supplemented with 10% FBS, with added taurine, ascorbic acid phosphate, glutathione, and antibiotic as for proliferation medium (above), and with 2.72 g/L glucose and 1.72 g/L fructose. At confluence, the medium was changed to Dulbecco's MEM, containing 10% FBS^40, ascorbic acid phosphate, antibiotic, 2.72 g/L glucose and 1.72 g/L fructose. Cells were maintained as stable, confluent monolayers in this latter medium for 4 to 7 days before experimental treatments commenced.
All treatments, including media for vehicle control samples, contained a final DMSO concentration of 0.1% (v/v) across the concentration ranges selected. Treatments lasted 96 hours, with one exchange of medium on the third treatment day. The final 48-hr conditioned media (“CM”) samples were collected in their entirety (0.5 ml), centrifuged briefly to remove particulates, aliquoted, and stored at −20° C. until thawed for analysis.
Undiluted CM was combined with denaturing 4× sample buffer containing 2% SDS, and samples were loaded at equivalent protein content onto 4-20% Tris-HCl polyacrylamide gels (BioRad, Hercules, Calif.). After electrophoresis, proteins underwent wet transfer to […] nitrocellulose (BioRad) for immunoblotting. The filters were blocked with 5% (w/v) nonfat dry milk (BioRad) in Tris-buffered saline plus 0.02% (v/v) Tween-20 (“TBST”; Tween-20 from Calbiochem, San Diego, Calif.), and incubated with a 1:2000 dilution (from 200 μg/ml) of goat anti-recombinant human myocilin antibody (R&D Systems, Minneapolis, Minn.) in blocking buffer, overnight at 4° C. […]
(In general: A western blot detects proteins with antibodies after separation by electrophoresis.)

Another data set has as its system rabbit eye. Put plainly: Pupillary diameter measurement, rabbit paracentesis model. Format: in vivo. Particulars: individual eyes; for Pupillary diameter T2: −5 min: 5 min before the first paracentesis; for Pupillary diameter T3: +115 min: 5 min before the second paracentesis; for Pupillary diameter Δ(T3 − T1): +115 min minus −180 min; for Pupillary diameter T1: −180 min: basal. As for the experimental part: Each rabbit was placed in a restraint device and tagged with the alphanumeric code. The formulations were instilled (50 μl) into the conjunctival sac of both eyes 180, 120, 90 and 30 min before the first paracentesis; then 15, 30, 90 min after the first paracentesis. To perform the first paracentesis the animals were anaesthetized by intravenous injection of 5 mg/kg Zoletil® (Virbac; 2.5 mg/kg tiletamine HCl and 2.5 mg/kg zolazepam HCl) and one drop of local anesthetic (Novesina®, Novartis) was administered to the eye. Anterior chamber paracentesis was performed with a 26 G needle attached to a tuberculin syringe; the needle was introduced into the anterior chamber through the cornea, taking care not to damage the tissues. Two hours after the ® first paracentesis, the animals were sacrificed with 0.4 ml Tanax® (Intervet International B.V.) and the second paracentesis was performed. About 100 μl of aqueous humor were removed at the second paracentesis. Aqueous humor was immediately split in four aliquots and stored at −80° C. until analysis. Then both eyes were enucleated and the iris-ciliary body was carefully excised, placed in polypropylene tubes, and stored at −80° C. until analysis.
The pupillary diameter of both eyes was measured with a Castroviejo caliper 180 min and 5 min before the first paracentesis and 5 min before the second paracentesis.
Pupillary diameter, PGE2, protein, PMN, and MPO were expressed as mean±SEM. Statistical analysis was performed using one way ANOVA followed by a Newman-Keuls post hoc test. Clinical score was expressed as % of eyes and the statistical analysis was performed using Kruskal-Wallis followed by a Dunn post hoc test. P<0.05 was considered statistically significant in both cases. Prism 4 software (GraphPad Software, Inc.) was used for the analysis and graphs.

Another data set deals with COX-2. In words: COX-2 protein in IL-1β-induced human conjunctival fibroblasts (Western blot). The class given is cell-based. Particulars: 2 h pretreatment, then 24 h with IL-1β. How it is done:
Cells were washed with ice-cold PBS and lysed in cell lysis buffer (62.5 mM Tris-HCl, pH 6.8, 2% sodium dodecyl sulfate (SDS), 10% glycerol). Cells were sonicated, and centrifuged at 12.000 rpm and protein concentration was determined using the Micro BCA protein assay kit. Proteins in aliquots of cell lysate (˜20 μg protein) were separated by SDS-polyacrylamide electrophoresis (SDS-PAGE) on 10% gels and transferred to PVDF membranes. Membranes were blocked with 5% BSA and exposed to mouse anti-COX-2 antibody (Caymen). The blots were washed, and exposed to horseradish peroxidase-conjugated anti-mouse secondary antibody. After washing, blots were incubated in ECL (enhanced chemiluminescence) solutions and chemiluminescent bands were visualized using the FluorChem imaging system (AlphaInnotech, San Leandro, Calif.). Blots were then stripped and re-probed for glyceraldehyde 3-phosphate dehydrogenase (GAPDH) (Zymed) antibody as loading controls. The experiment was repeated 3 times. Analysis of Western blot band density for COX-2 and GAPDH in captured digital images was done using the Alpha-Innotech Chemi-Imager software (Alpha Innotech; San Leandro, Calif.). Levels of COX-2 protein were normalized to GAPDH.

The mark [2] stands for this setting: 0.1% topical formulation, listed as BOL.
Setting [3] is: 0.5% topical formulation, listed as BOL.
The mark [4] stands for this setting: 1% topical formulation, listed as BOL.
[5] abbreviates: 0.1% topical formulation, listed as Dex.

Values joined by “and” are separate entries in the source; they are usually repeats but may differ in a detail not shown here. Equal values may be shown once.

As to `Cc1ccc2c(NCC(O)(CC(C)(C)c3cc(F)cc4c3OCC4)C(F)(F)F)cccc2n1` (stereo not shown) [BOL-303242-X], in data set [1], the “Levels of myocilin protein released by cultured monkey TM cells, compared to DEX” value is listed as “significantly lower levels” and the “Effect on myocilin concentrations in CM” value is recorded as “increased myocilin concentrations in a dose-dependent manner”. For the same compound, the “Maximal efficacy for myocilin accumulation in CM, relative to DEX treatment” value in data set [1] (computed across all nine TM cells strains) is listed as “about 50%”. Also, in data set [1] (monkey TM cells, compared with DEX at high doses), the “Activity on myocilin gene expression” value is “partial agonist activity”. For the same compound, in the data set on rabbit eye (setting [2]), the “Pupillary diameter T2: −5 min” value was 6.5 mm (3×) and 7.0 mm (4×) and 7.5 mm; the “Pupillary diameter T3: +115 min” value was 5.0 mm (2×) and 6.0 mm (3×) and 6.5 mm and 5.5 mm (2×); the “Pupillary diameter Δ(T3 − T1)” value was −1.5 mm (4×) and −0.5 mm (2×) and −1.0 mm (2×); the “Pupillary diameter T1: −180 min” value is 6.5 mm (4×) and 7.0 mm (3×) and 7.5 mm. Further, in the data set on rabbit eye (setting [3]), the “Pupillary diameter T2: −5 min” value was 8.0 mm (3×) and 7.0 mm (4×) and 7.5 mm; the “Pupillary diameter T3: +115 min” value is 6.5 mm (4×) and 6.0 mm (2×) and 7.0 mm (2×); the “Pupillary diameter Δ(T3 − T1)” value was −1.5 mm (2×) and −0.5 mm (2×) and −1.0 mm (4×); the “Pupillary diameter T1: −180 min” value is 8.0 mm (3×) and 7.0 mm (3×) and 7.5 mm (2×). For the same compound, in the data set on rabbit eye (setting [4]), the “Pupillary diameter T2: −5 min” value was 6.0 mm (2×) and 6.5 mm (4×) and 7.0 mm (2×); the “Pupillary diameter T3: +115 min” value was 5.5 mm (2×) and 5.0 mm (4×) and 6.0 mm (2×); the “Pupillary diameter Δ(T3 − T1)” value was −0.5 mm (3×) and −1.5 mm (2×) and −1.0 mm (3×); the “Pupillary diameter T1: −180 min” value is 6.0 mm (3×) and 6.5 mm (5×). In addition, the “Production of COX-2 by IL-1β-induced HConF” value in the data set with COX-2 was “successfully inhibits”.
Take `C[C@@H]1C[C@H]2[C@@H]3CCC4=CC(=O)C=C[C@]4(C)[C@@]3(F)[C@@H](O)C[C@]2(C)[C@@]1(O)C(=O)CO` [dexamethasone, reference compound]: the “Effect on myocilin concentrations in CM” value in data set [1] is “increased myocilin concentrations in a dose-dependent manner”. Moreover, in the data set with rabbit eye (setting [5]), the “Pupillary diameter T2: −5 min” value was 5.5 mm and 6.5 mm (3×) and 6.0 mm (2×) and 7.0 mm and 7.5 mm; the “Pupillary diameter T3: +115 min” value was 5.5 mm (3×) and 6.0 mm (2×) and 4.5 mm and 5.0 mm and 6.5 mm; the “Pupillary diameter Δ(T3 − T1)” value was −0.5 mm (3×) and −1.5 mm (2×) and 0.5 mm and 0.0 mm and −2.0 mm; the “Pupillary diameter T1: −180 min” value is 6.0 mm and 7.0 mm (2×) and 5.5 mm (2×) and 6.5 mm (3×).
